# Where a name gives a salt, the structure may show the parent alone.
# Tested on: c-Myc
# Assay: c-Myc immunofluorescence assay
# Type: cell-based, human
# Settings: A549 cells, 24 hours treatment, anti-c-Myc immunofluorescence
# Procedure: A549 human non-small cell lung carcinoma cells were treated for 24 hours with increasing compound concentration, cells were fixed and stained with a nuclei stain (DAPI) and anti-c-Myc fluorescent antibody. The c-Myc signal was quantified by image analysis, and data was exported and analyzed using TIBCO Spotfire® (TIBCO Corporation). Dose response curves were generated and fitted with logaristic regression to calculate potency (EC50 values). Potency values are presented in Table 2 for all compounds and are shown for selected compounds (FIG. 4).
# A549 cells were grown in 384-wells plates (Perkin Elmer, Cat. 6057300) for 48 hours, treated with compounds and then fixed for 20 min in 4% paraformaldehyde. After that permeabilization was done using 0.1% Triton X-100 in PBS for 20 min. Primary anti-c-Myc antibody (Abcam, ab32072) staining was performed for 90 min at room temperature. Cells then were washed twice with PBS and incubated with secondary antibody (Abcam, ab150075) for 90 min at room temperature. Nuclei were stained with DAPI for 10 min and washed twice with PBS.
# Cell images were taken with Operetta (Perkin Elmer, USA), a wide-field fluorescence microscope at 20× magnification. After acquisition, the images were transferred to Columbus software (Perkin-Elmer) for image analysis. In Columbus, cells were identified by their nucleus, using the “Find Nuceli” module and cytoplasm was detected based on the secondary antibody channel. Subsequently, the fluorescent signal was enumerated in the identified cell region. Then data was exported to a data analysis and visualization software, Tibco Spotfire, USA.
row,Compound,Myc Efficacy (−LogEC50)
1,"O=C(NCCCN1CCC(F)CC1)c1ccc2c(c1)sc1nc(-c3ccc(C4CCCNC4)cc3F)cn12 (centres unmarked) [Compound 513, 2-(2-fluoro-4-(piperidin-3-yl)phenyl)-N-(3-(4-fluoropiperidin-1-yl)propyl)benzo[d]imidazo[2,1-b]thiazole-7-carboxamide]",+++ (+++ ≥6)
2,"NC(=O)c1cc2sc3nc(-c4ccc(C5CCCN5)cc4F)cn3c2cn1 (centres unmarked) [Compound 514, 2-(2-fluoro-4-(pyrrolidin-2-yl)phenyl)imidazo[2′,1′:2,3]thiazolo[4,5-c]pyridine-7-carboxamide]",+++ (+++ ≥6)
3,"CNC(=O)c1cc2sc3nc(-c4ccc(C5CCCN5)cc4F)cn3c2cn1 (centres unmarked) [Compound 515, 2-(2-fluoro-4-(pyrrolidin-2-yl)phenyl)-N-methylimidazo[2′,1′:2,3]thiazolo[4,5-c]pyridine-7-carboxamide]",+++ (+++ ≥6)
4,"O=C(NCCCN1CCC(F)CC1)c1ccc2c(c1)sc1nc(-c3ccc(C4(O)CCNC4)cc3F)cn12 (centres unmarked) [Compound 516, 2-(2-fluoro-4-(3-hydroxypyrrolidin-3-yl)phenyl)-N-(3-(4-fluoropiperidin-1-yl)propyl)benzo[d]imidazo[2,1-b]thiazole-7-carboxamide]",+++ (+++ ≥6)
5,"CN1CCC(NC(=O)c2ccc3c(c2)sc2nc(-c4ccc(C5COCCN5)cc4F)cn23)CC1 (centres unmarked) [Compound 517, 2-(2-fluoro-4-(morpholin-3-yl)phenyl)-N-(1-methylpiperidin-4-yl)benzo[d]imidazo[2,1-b]thiazole-7-carboxamide]",+++ (+++ ≥6)
6,"CN1CCC(NC(=O)c2ccc3c(c2)sc2nc(-c4ccc(C5CNCCO5)cc4F)cn23)CC1 (centres unmarked) [Compound 519, 2-(2-fluoro-4-(morpholin-2-yl)phenyl)-N-(1-methylpiperidin-4-yl)benzo[d]imidazo[2,1-b]thiazole-7-carboxamide]",+++ (+++ ≥6)
7,"CN1CCC(NC(=O)c2ccc3c(c2)sc2nc(-c4ccc([C@@H]5C[C@@H](O)CN5)cc4F)cn23)CC1 [Compound 522R, 2-(2-fluoro-4-((2S,4R)-4-hydroxypyrrolidin-2-yl)phenyl)-N-(1-methylpiperidin-4-yl)benzo[d]imidazo[2,1-b]thiazole-7-carboxamide]",+++ (+++ ≥6)
8,"CN1CCC(NC(=O)c2ccc3c(c2)sc2nc(-c4ccc([C@@H]5C[C@H](O)CN5)cc4F)cn23)CC1 [Compound 522S, 2-(2-fluoro-4-((2S,4S)-4-hydroxypyrrolidin-2-yl)phenyl)-N-(1-methylpiperidin-4-yl)benzo[d]imidazo[2,1-b]thiazole-7-carboxamide]",+++ (+++ ≥6)
9,"O=C(NC1CCCOC1)c1ccc2c(c1)sc1nc(-c3ccc(C4CCCN4)cc3F)cn12 (centres unmarked) [Compound 525, 2-(2-fluoro-4-(pyrrolidin-2-yl)phenyl)-N-(tetrahydro-2H-pyran-3-yl)benzo[d]imidazo[2,1-b]thiazole-7-carboxamide]",+++ (+++ ≥6)
10,"O=C(NC1CCOCC1)c1ccc2c(c1)sc1nc(-c3ccc(C4CCNCC4)cc3F)cn12 [Compound 529, 2-(2-fluoro-4-(piperidin-4-yl)phenyl)-N-(tetrahydro-2H-pyran-4-yl)benzo[d]imidazo[2,1-b]thiazole-7-carboxamide]",+++ (+++ ≥6)
11,"O=C(NC1CCOCC1)c1ccc2c(c1)sc1nc(-c3ccc(C4COCCN4)cc3F)cn12 (centres unmarked) [Compound 534, 2-(2-fluoro-4-(morpholin-3-yl)phenyl)-N-(tetrahydro-2H-pyran-4-yl)benzo[d]imidazo[2,1-b]thiazole-7-carboxamide]",+++ (+++ ≥6)
12,"O=C(NC1CCOCC1)c1ccc2c(c1)sc1nc(-c3ccc(C4CNCCO4)cc3F)cn12 (centres unmarked) [Compound 535, 2-(2-fluoro-4-(morpholin-2-yl)phenyl)-N-(tetrahydro-2H-pyran-4-yl)benzo[d]imidazo[2,1-b]thiazole-7-carboxamide]",+++ (+++ ≥6)
13,"CN1CCC(NC(=O)c2ccc3c(c2)sc2nc(-c4ccc(C5(F)CCNCC5)cc4F)cn23)CC1 [Compound 536, 2-(2-fluoro-4-(4-fluoropiperidin-4-yl)phenyl)-N-(1-methylpiperidin-4-yl)benzo[d]imidazo[2,1-b]thiazole-7-carboxamide]",+++ (+++ ≥6)
14,"O=C1CNC(c2ccc(-c3cn4c(n3)sc3cc(C(=O)NC5CCOCC5)ccc34)c(F)c2)C1 (centres unmarked) [Compound 537, 2-(2-fluoro-4-(4-oxopyrrolidin-2-yl)phenyl)-N-(tetrahydro-2H-pyran-4-yl)benzo[d]imidazo[2,1-b]thiazole-7-carboxamide]",+++ (+++ ≥6)
15,"NC(CO)c1ccc(-c2cn3c(n2)sc2cc(C(=O)NCCCN4CCC(F)CC4)ccc23)c(F)c1 (centres unmarked) [Compound 539, 2-(4-(1-amino-2-hydroxyethyl)-2-fluorophenyl)-N-(3-(4-fluoropiperidin-1-yl)propyl)benzo[d]imidazo[2,1-b]thiazole-7-carboxamide]",+++ (+++ ≥6)
16,"O=C(NCCCN1CCC(F)CC1)c1ccc2c(c1)sc1nc(-c3ccc(C4CC(C(F)F)CN4)cc3F)cn12 (centres unmarked) [Compound 542, 2-(4-(4-(difluoromethyl)pyrrolidin-2-yl)-2-fluorophenyl)-N-(3-(4-fluoropiperidin-1-yl)propyl)benzo[d]imidazo[2,1-b]thiazole-7-carboxamide]",+++ (+++ ≥6)
17,"O=C(NCCCN1CCC(F)CC1)c1ccc2c(c1)sc1nc(-c3ccc(C4CCNO4)cc3F)cn12 (centres unmarked) [Compound 543, 2-(2-fluoro-4-(isoxazolidin-5-yl)phenyl)-N-(3-(4-fluoropiperidin-1-yl)propyl)benzo[d]imidazo[2,1-b]thiazole-7-carboxamide]",+++ (+++ ≥6)
18,"CN1CCC(NC(=O)c2ccc3c(c2)sc2nc(-c4ccc(N5CCNCC5)cc4F)cn23)CC1 [Compound 547, 2-(2-fluoro-4-(piperazin-1-yl)phenyl)-N-(1-methylpiperidin-4-yl)benzo[d]imidazo[2,1-b]thiazole-7-carboxamide]",+++ (+++ ≥6)
19,"CC(=O)Nc1ccc2c(c1)sc1nc(-c3ccc(C4CCCN4)cc3F)cn12 (centres unmarked) [Compound 548, N-(2-(2-fluoro-4-(pyrrolidin-2-yl)phenyl)benzo[d]imidazo[2,1-b]thiazol-7-yl)acetamide]",+++ (+++ ≥6)
20,"CN1CCC(C(=O)Nc2ccc3c(c2)sc2nc(-c4ccc(C5CCCN5)cc4F)cn23)CC1 (centres unmarked) [Compound 593, N-(2-(2-fluoro-4-(pyrrolidin-2-yl)phenyl)benzo[d]imidazo[2,1-b]thiazol-7-yl)-1-methylpiperidine-4-carboxamide dihydrochloride]",+++ (+++ ≥6)
21,"O=C(Nc1ccc2c(c1)sc1nc(-c3ccc(C4CCCN4)cc3F)cn12)C1CCOCC1 (centres unmarked) [Compound 594, N-(2-(2-fluoro-4-(pyrrolidin-2-yl)phenyl)benzo[d]imidazo[2,1-b]thiazol-7-yl)tetrahydro-2H-pyran-4-carboxamide hydrochloride]",+++ (+++ ≥6)
22,"O=C(NCCCN1CCC(F)CC1)c1ccc2c(c1)sc1nc(-c3cc4c(cc3F)CCNC4)cn12 [Compound 600, 2-(6-fluoro-1,2,3,4-tetrahydroisoquinolin-7-yl)-N-(3-(4-fluoropiperidin-1-yl)propyl)benzo[d]imidazo[2,1-b]thiazole-7-carboxamide dihydrochloride]",+++ (+++ ≥6)
23,"O=C(NCCCN1CCC(F)CC1)c1ccc2c(c1)sc1nc(-c3cc4c(cc3F)NCC4)cn12 [Compound 602, 2-(6-fluoroindolin-5-yl)-N-(3-(4-fluoropiperidin-1-yl)propyl)benzo[d]imidazo[2,1-b]thiazole-7-carboxamide]",+++ (+++ ≥6)
24,"O=C(NCCCN1CCCCC1)c1ccc2c(c1)sc1nc(-c3ccccc3)cn12 [compound 101, 2-phenyl-N-(3-(piperidin-1-yl)propyl)benzo[d]imidazo[2,1-b]thiazole-7-carboxamide]",+++ (+++ ≥6)
25,"Cc1ccc(-c2cn3c(n2)sc2cc(C(=O)N4CCCCCC4)ccc23)cc1 [compound 102, Azepan-1-yl(2-(p-tolyl)benzo[d]imidazo[2,1-b]thiazol-7-yl)methanone]",+ (+ >3 and <5)
26,"O=C(NCCCN1CCCCCC1)c1ccc2c(c1)sc1nc(-c3ccccc3)cn12 [compound 103, N-(3-(azepan-1-yl)propyl)-2-phenylbenzo[d]imidazo[2,1-b]thiazole-7-carboxamide]",+++ (+++ ≥6)
27,"O=C(c1ccc2c(c1)sc1nc(-c3ccc(F)cc3)cn12)N1CCCCCC1 [compound 104, azepan-1-yl(2-(4-fluorophenyl)benzo[d]imidazo[2,1-b]thiazol-7-yl)methanone]",+ (+ >3 and <5)
28,"CCCSCCCNC(=O)c1ccc2c(c1)sc1nc(-c3ccc(F)cc3)cn12 [compound 105, 2-(4-fluorophenyl)-N-(3-(propylthio)propyl)benzo[d] imidazo[2,1-b]thiazole-7-carboxamide]",+ (+ >3 and <5)
29,"CCOc1ccc(-c2cn3c(n2)sc2cc(C(=O)N4CCCCCC4)ccc23)cc1 [compound 106, azepan-1-yl(2-(4-ethoxyphenyl)benzo[d]imidazo[2,1-b]thiazol-7-yl)methanone]",+ (+ >3 and <5)
